Laboratory results: PubChem BioAssay (NCI)
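Interpolation was linear, between the two tested concentrations surrounding the appropriate level; five concentrations were tested over 48 hours in 96-well plates. TGI denotes the concentration required for complete inhibition of growth.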

Legend:
Assay in all cases: NCI anticancer screen, dose series, 48 h
MCF7 breast = tested on: MCF7 breast
OVCAR-5 ovarian = tested on: OVCAR-5 ovarian
SF-295 CNS = tested on: SF-295 CNS
A549 NSCLC = tested on: A549 NSCLC
HT29 colon = tested on: HT29 colon
EKVX NSCLC = tested on: EKVX NSCLC
SR leukemia = tested on: SR leukemia
SN12C renal = tested on: SN12C renal
SNB-75 CNS = tested on: SNB-75 CNS
NCI-H522 lung = tested on: NCI-H522 lung
HOP-62 NSCLC = tested on: HOP-62 NSCLC
MDA-N = tested on: MDA-N
M14 melanoma = tested on: M14 melanoma
IGROV1 ovarian = tested on: IGROV1 ovarian
A498 renal = tested on: A498 renal
SK-OV-3 ovarian = tested on: SK-OV-3 ovarian
CAKI-1 renal = tested on: CAKI-1 renal
ACHN renal = tested on: ACHN renal

Compound | TGI (MCF7 breast) [µM] | TGI (OVCAR-5 ovarian) [µM] | TGI (SF-295 CNS) [µM] | TGI (A549 NSCLC) [µM] | TGI (HT29 colon) [µM] | TGI (EKVX NSCLC) [µM] | TGI (SR leukemia) [µM] | TGI (SN12C renal) [µM] | TGI (SNB-75 CNS) [µM] | TGI (NCI-H522 lung) [µM] | TGI (HOP-62 NSCLC) [µM] | TGI (MDA-N) [µM] | TGI (M14 melanoma) [µM] | TGI (IGROV1 ovarian) [µM] | TGI (A498 renal) [µM] | TGI (SK-OV-3 ovarian) [µM] | TGI (CAKI-1 renal) [µM] | TGI (ACHN renal) [µM]
Cn1c(=O)c2c(nc(N)n2C2OC(CO)C(O)C2O)n(C)c1=O (configuration not stated) | > 100 | > 100 | > 100 | > 100 | > 100 | > 100 | > 100 | > 100 | > 100 | > 100 | > 100 | > 100 | > 100 | > 100 | > 100 | > 100 | > 100 | > 100
O=C(Nc1nnc(-c2c(Cl)c(Cl)c(Cl)c(Cl)c2-c2nc3cc(C(=O)c4ccccc4)ccc3[nH]2)o1)c1ccccc1 | 36.5 | 55.7 | 24.3 | 31.9 | 63.6 | 38.7 | 20.9 | 31.3 | 41.4 |  | 26.3 | 12.6 | 34.4 | 42 | 49.6 | 52.2 | > 100 | 55.6
CCN(CC)CCOC(=O)CCN1CC2CCC(CC2)C1 | > 100 | > 100 | > 100 | > 100 | > 100 | > 100 | > 100 |  | > 100 | > 100 |  | > 100 | > 100 | > 100 | > 100 | > 100 | > 100 | > 100
C/C1=C\[C@H](C)C[C@H](C)OC(=O)C[C@H](c2ccc(O)cc2)NC(=O)[C@H](Cc2ccc(O)c(Br)c2)N(C)C(=O)[C@H](C)NC(=O)[C@@H](C)C1 | > 25 | > 25 | > 25 | > 25 | > 25 | > 25 | > 25 | > 25 | > 25 | > 25 | > 25 | > 25 | > 25 | > 25 | > 25 | > 25 |  | > 25
COC(=O)[C@]12CCC(C)(C)C[C@H]1C1=CC[C@@H]3[C@@]4(C)CC[C@H](OC5OC(CO)C(O)C(O)C5OC5OC(CO)C(O)C(O)C5O)C(C)(C)[C@@H]4CC[C@@]3(C)[C@]1(C)CC2 (some centres not stated) | 24.4 | 30.5 | 27.2 | 22.2 | 22.1 | 26 | 26.8 | 15.9 | 26.4 | 8.71 | 25.3 | 18.4 | 13.9 | 28.7 | 23.5 | 36.1 | 21 | 20.5
COc1cc2nc(-c3ccccc3F)[nH]c(=O)c2cc1OC | > 100 | > 100 | > 100 | > 100 | > 100 | > 100 | > 100 | > 100 | > 100 | > 100 | > 100 | > 100 | > 100 | > 100 | > 100 | > 100 | > 100 | > 100
CO[C@@H]1C=C[C@@]23c4cc5c(cc4C(O)N(CC2O)C3C1)OCO5 (some centres not stated) | 8.64 | 79.3 | 64.1 | 39.5 | 26.2 | 33.3 | > 100 | > 100 | 6.92 | > 100 | > 100 | 26.1 | 12.6 | 68.9 | 7.68 | > 100 | 27.2 | 18.6
